Source: article PMC12921483 (Frontiers in Pharmacology, 2026)
Like-named read-outs stand apart in the source and are kept apart here.

Experiments:
Type in all cases: cell-based
HeLa = experiment: CCK-8 antiproliferative assay, HeLa
Protocol: (§1) Cells were seeded into 96-well plates at a density of 2.5–6 × 10^3 cells per well and incubated for 24 h. They were then treated with a series of eight concentrations of the test compounds (e.g., from 100 to 0.78125 μM or from 2 to 0.015625 μM, prepared by twofold serial dilution) for 48 h. After treatment, the medium was removed and replaced with 100 μL of 10% CCK-8 solution (diluted in fresh medium). Following incubation in the dark for 1–2 h, absorbance at 450 nm was measured using a microplate reader. The half-maximal inhibitory concentration (IC50) was calculated using SPSS software. Each concentration was tested in six replicate wells, and the entire experiment was performed in three independent biological replicates.
(§2) IC50 values were derived by nonlinear regression (SPSS 26). All data are presented as mean ± SD from at least three independent biological replicates (n ≥ 3). Differences were assessed by Student’s t-test (two groups) or one-way ANOVA with Tukey’s post hoc test (multiple groups). […] Statistical significance was set at p < 0.05.

H8 = experiment: CCK-8 cytotoxicity, normal cervical epithelial cells H8; details: for IC50: read-out: IC50 H8; for toxicity to H8 cells in words: normal cervical epithelial cells
Protocol: as §1, §2

SiHa = experiment: CCK-8 antiproliferative assay, SiHa; details: read-out: IC50 SiHa
Protocol: as §1, §2

C-33A = experiment: CCK-8 antiproliferative assay, C-33A; details: read-out: IC50 C-33A
Protocol: as §1, §2

HeLa cells [1] = experiment: GSH assay kit; details: Fer-1 5 μmol/L cotreated with 0.22 μmol/L B1, HeLa
Protocol: Intracellular GSH levels were measured using a GSH assay kit.
(§3) After 24 h of treatment, cells were collected and washed twice with PBS for subsequent analysis. […] Subsequent procedures were performed strictly according to the manufacturer’s instructions of the respective kits: MDA assay kit (Servicebio, Cat# GM1134), Fe^2+ colorimetric assay kit (Servicebio, Cat# GM3052), and reduced GSH assay kit (Servicebio, Cat# GM1139).

HeLa cells [2] = experiment: MDA assay kit; details: Fer-1 5 μmol/L cotreated with 0.22 μmol/L B1, HeLa
Protocol: MDA levels in HeLa cells were detected using an MDA assay kit ([Tsikas et al., 2017]).
After 24 h of treatment, cells were collected and washed twice with PBS for subsequent analysis.

GPX4 = experiment: Western blot, GPX4 expression in HeLa cells; details: Fer-1 5 μmol/L cotreated with B1, HeLa
SLC7A11 = experiment: Western blot, SLC7A11 expression in HeLa cells; details: Fer-1 5 μmol/L cotreated with B1, HeLa
HeLa cells [3] = experiment: Fe2+ assay kit; details: Fer-1 5 μmol/L cotreated with 0.22 μmol/L B1, HeLa
Protocol: Intracellular ferrous iron (Fe^2+) levels in HeLa cells were measured using an Fe^2+ assay kit.
as §3

[4] = Homo sapiens, HeLa, 48 h, read-out: IC50 HeLa
[5] = Homo sapiens, HeLa, CCK-8, 48 h, Table 1, read-out: IC50 HeLa
[6] = Epithelial cell, CCK-8, 48 h, normal cells, Table 1
[7] = Homo sapiens, SiHa, CCK-8, 48 h, Table 1
[8] = Homo sapiens, C-33-A, CCK-8, 48 h, Table 1
[9] = CCK-8, 48 h, Table 1, read-out: IC50 HeLa
[10] = CCK-8, 48 h, normal cells, Table 1

COc1ccc(F)cc1/C=C/C(=O)c1ccc(N2CCCC2)cc1 [Compound D1]
IC50 (HeLa; [4]): 5.25 ± 0.1 µM | IC50 (H8; Epithelial cell, 48 h): 19.2 ± 1.08 µM | IC50 (SiHa; Homo sapiens, SiHa, 48 h): 5.44 ± 0.23 µM | IC50 (C-33A; Homo sapiens, C-33-A, 48 h): 20.9 ± 1.03 µM

O=C(/C=C/c1ccc(N2CCCC2)cc1)c1ccccc1C(F)(F)F [Compound A5]
IC50 (HeLa; [4]): 13.6 ± 0.26 µM | IC50 (H8; Epithelial cell, 48 h): 78.7 ± 1.41 µM | IC50 (SiHa; Homo sapiens, SiHa, 48 h): 38 ± 0.74 µM | IC50 (C-33A; Homo sapiens, C-33-A, 48 h): 36.69 ± 0.22 µM

CCOC(=O)c1ccc(NC2CCCCC2)c(N)c1 [Ferrostatin-1, ferrostatin-1]
intracellular GSH levels on cotreatment (HeLa cells [1]): increased | MDA levels on cotreatment (HeLa cells [2]): reduced | GPX4 protein expression level on cotreatment (GPX4): increased | SLC7A11 protein expression level on cotreatment (SLC7A11): increased | Fe^2+ levels on cotreatment (HeLa cells [3]): reduced

O=C(/C=C/c1cccc(OC(F)(F)F)c1)c1ccc(N2CCCC2)cc1 [Compound D5]
IC50 (HeLa; [4]): 32 ± 1.28 µM | IC50 (H8; Epithelial cell, 48 h): > 100 µM | IC50 (SiHa; Homo sapiens, SiHa, 48 h): 44.4 ± 1.64 µM | IC50 (C-33A; Homo sapiens, C-33-A, 48 h): > 100 µM

O=C(/C=C/c1ccc(N2CCCC2)cc1)c1ccccc1OC(F)(F)F [Compound B5]
IC50 (HeLa; [4]): 0.9 ± 0.02 µM | IC50 (H8; Epithelial cell, 48 h): 76.9 ± 3.87 µM | IC50 (SiHa; Homo sapiens, SiHa, 48 h): 0.91 ± 0.03 µM | IC50 (C-33A; Homo sapiens, C-33-A, 48 h): 5.93 ± 0.07 µM

O=C(/C=C/c1ccccc1)c1ccccc1 [Chalcone, reference compound]
IC50 (HeLa; [5]): 63.9 ± 2.85 µM | IC50 (H8; [6]): 38.6 ± 1.64 µM | IC50 (SiHa; [7]): 69.7 ± 1.67 µM | IC50 (C-33A; [8]): 58.7 ± 1.05 µM

COc1ccc(Br)cc1/C=C/C(=O)c1ccc(N2CCCC2)cc1 [Compound D2]
IC50 (HeLa; [4]): 10.8 ± 0.37 µM | IC50 (H8; Epithelial cell, 48 h): 40 ± 0.55 µM | IC50 (SiHa; Homo sapiens, SiHa, 48 h): 11.55 ± 0.06 µM | IC50 (C-33A; Homo sapiens, C-33-A, 48 h): 49.8 ± 2.93 µM

COc1ccc(Cl)cc1/C=C/C(=O)c1ccc(N2CCCC2)cc1 [Compound D3]
IC50 (HeLa; [4]): 8.17 ± 0.46 µM | IC50 (H8; Epithelial cell, 48 h): 22.6 ± 0.32 µM | IC50 (SiHa; Homo sapiens, SiHa, 48 h): 10.9 ± 0.38 µM | IC50 (C-33A; Homo sapiens, C-33-A, 48 h): 34.2 ± 1.3 µM

O=C(/C=C/c1ccc(N2CCCC2)cc1)c1ccc(C(F)(F)F)cc1 [Compound A8]
IC50 (HeLa; [4]): > 100 µM | IC50 (H8; Epithelial cell, 48 h): > 100 µM | IC50 (SiHa; Homo sapiens, SiHa, 48 h): > 100 µM | IC50 (C-33A; Homo sapiens, C-33-A, 48 h): > 100 µM

COc1ccc(F)cc1C(=O)/C=C/c1ccc(N2CCCC2)cc1 [Compound B1]
IC50 (HeLa; [4]): 0.22 ± 0.01 µM | IC50 (HeLa; Homo sapiens, HeLa, read-out: IC50 HeLa): ~0.22 µM | IC50 (H8; Epithelial cell, 48 h): 45.8 ± 1.61 µM | toxicity to H8 cells in words (H8): low toxicity | IC50 (SiHa; Homo sapiens, SiHa, 48 h): 0.24 ± 0.03 µM | IC50 (SiHa; Homo sapiens, SiHa): ~0.24 µM | IC50 (C-33A; Homo sapiens, C-33-A, 48 h): 0.95 ± 0.02 µM

O=C(/C=C/c1ccc(OC(F)(F)F)cc1)c1ccc(N2CCCC2)cc1 [Compound D6]
IC50 (HeLa; [4]): > 100 µM | IC50 (H8; Epithelial cell, 48 h): > 100 µM | IC50 (SiHa; Homo sapiens, SiHa, 48 h): 77.3 ± 2.13 µM | IC50 (C-33A; Homo sapiens, C-33-A, 48 h): > 100 µM

COc1ccc(C2=N[C@@H](c3ccc(Cl)cc3)[C@@H](c3ccc(Cl)cc3)N2C(=O)N2CCNC(=O)C2)c(OC(C)C)c1 [Nutlin-3a, reference compound]
IC50 (HeLa; [9]): 61.3 ± 1.42 µM | IC50 (H8; [10]): 45.5 ± 2.11 µM | IC50 (SiHa; CCK-8, 48 h, Table 1): 56.6 ± 2.2 µM | IC50 (C-33A; CCK-8, 48 h, Table 1): 57 ± 2.81 µM

N.N.[Cl][Pt][Cl] [Cisplatin, reference compound]
IC50 (HeLa; [9]): 18.23 ± 0.11 µM | IC50 (H8; [10]): 25.6 ± 1.32 µM | IC50 (SiHa; CCK-8, 48 h, Table 1): 37 ± 1.54 µM | IC50 (C-33A; CCK-8, 48 h, Table 1): 12.7 ± 1.09 µM

COc1ccc(Cl)cc1C(=O)/C=C/c1ccc(N2CCCC2)cc1 [Compound B3]
IC50 (HeLa; [4]): 1.59 ± 0.08 µM | IC50 (H8; Epithelial cell, 48 h): 57 ± 2.47 µM | IC50 (SiHa; Homo sapiens, SiHa, 48 h): 2.17 ± 0.02 µM | IC50 (C-33A; Homo sapiens, C-33-A, 48 h): 4.29 ± 0.15 µM

COc1ccccc1C(=O)/C(C)=C/c1ccc(N2CCCC2)cc1 [Compound B4]
IC50 (HeLa; [5]): 84.8 ± 2.69 µM | IC50 (H8; [6]): > 100 µM | IC50 (SiHa; [7]): 44.7 ± 0.78 µM | IC50 (C-33A; [8]): > 100 µM

O=C(/C=C/c1ccccc1OC(F)(F)F)c1ccc(N2CCCC2)cc1 [Compound D4]
IC50 (HeLa; [4]): 4.09 ± 0.24 µM | IC50 (H8; Epithelial cell, 48 h): > 100 µM | IC50 (SiHa; Homo sapiens, SiHa, 48 h): 9.28 ± 0.33 µM | IC50 (C-33A; Homo sapiens, C-33-A, 48 h): 33 ± 2.38 µM

O=C(/C=C/c1ccc(N2CCCC2)cc1)c1ccc(Cl)c(Cl)c1Cl [Compound A9]
IC50 (HeLa; [5]): > 100 µM | IC50 (H8; [6]): > 100 µM | IC50 (SiHa; [7]): 90.5 ± 3.38 µM | IC50 (C-33A; [8]): > 100 µM

O=C(/C=C/c1ccc(N2CCCC2)cc1)c1ccc(OC(F)(F)F)cc1 [Compound B7]
IC50 (HeLa; [4]): > 100 µM | IC50 (H8; Epithelial cell, 48 h): > 100 µM | IC50 (SiHa; Homo sapiens, SiHa, 48 h): > 100 µM | IC50 (C-33A; Homo sapiens, C-33-A, 48 h): > 100 µM

O=C(/C=C/c1ccc(N2CCCC2)cc1)c1cccc(OC(F)(F)F)c1 [Compound B6]
IC50 (HeLa; [4]): > 100 µM | IC50 (H8; Epithelial cell, 48 h): > 100 µM | IC50 (SiHa; Homo sapiens, SiHa, 48 h): 49.5 ± 1.4 µM | IC50 (C-33A; Homo sapiens, C-33-A, 48 h): > 100 µM

COc1ccc(C(=O)/C=C/c2ccc(N3CCCC3)cc2)c(OC)c1OC [Compound A4]
IC50 (HeLa; [4]): 15.7 ± 0.38 µM | IC50 (H8; Epithelial cell, 48 h): 81 ± 1.03 µM | IC50 (SiHa; Homo sapiens, SiHa, 48 h): 7.78 ± 0.24 µM | IC50 (C-33A; Homo sapiens, C-33-A, 48 h): 21.3 ± 1.02 µM

O=C(/C=C/c1ccc(N2CCCC2)cc1)c1cccc(C(F)(F)F)c1 [Compound A6]
IC50 (HeLa; Homo sapiens, HeLa): > 100 µM | IC50 (HeLa; [4]): 31.8 ± 1.45 µM | IC50 (H8; Epithelial cell, 48 h): 86.4 ± 3.17 µM | IC50 (SiHa; Homo sapiens, SiHa, 48 h): 34.5 ± 0.59 µM | IC50 (C-33A; Homo sapiens, C-33-A, 48 h): 35.1 ± 0.37 µM

O=C(/C=C/c1ccc(N2CCCC2)cc1)c1cc(F)ccc1F [Compound C2]
IC50 (HeLa; Homo sapiens, HeLa): 9.3 µM | IC50 (HeLa; [4]): 27.1 ± 0.59 µM | IC50 (H8; Epithelial cell, 48 h): 35.1 ± 0.95 µM | IC50 (SiHa; Homo sapiens, SiHa, 48 h): 26.4 ± 1.11 µM | IC50 (C-33A; Homo sapiens, C-33-A, 48 h): 44.1 ± 1.99 µM

COc1ccc(Br)cc1C(=O)/C=C/c1ccc(N2CCCC2)cc1 [Compound B2]
IC50 (HeLa; [4]): 1.09 ± 0.05 µM | IC50 (H8; Epithelial cell, 48 h): 56.8 ± 0.75 µM | IC50 (SiHa; Homo sapiens, SiHa, 48 h): 1.35 ± 0.13 µM | IC50 (C-33A; Homo sapiens, C-33-A, 48 h): 4.4 ± 0.11 µM

COc1ccc(C(=O)/C=C/c2ccc(N3CCCC3)cc2)c(OC)c1 [Compound A2]
IC50 (HeLa; [4]): 16.7 ± 0.65 µM | IC50 (H8; Epithelial cell, 48 h): 74 ± 1.05 µM | IC50 (SiHa; Homo sapiens, SiHa, 48 h): 18.3 ± 0.73 µM | IC50 (C-33A; Homo sapiens, C-33-A, 48 h): 17.9 ± 0.55 µM

COc1ccccc1C(=O)/C=C/c1ccc(N2CCCC2)cc1 [Compound A1]
IC50 (HeLa; [4]): 3.04 ± 0.03 µM | IC50 (H8; Epithelial cell, 48 h): 61.3 ± 1.34 µM | toxicity to H8 cells in words (H8): low toxicity | IC50 (SiHa; Homo sapiens, SiHa, 48 h): 2.93 ± 0.21 µM | IC50 (C-33A; Homo sapiens, C-33-A, 48 h): 4.79 ± 0.19 µM

Cc1cccc(C(=O)/C=C/c2ccc(N3CCCC3)cc2)c1 [Compound A7]
IC50 (HeLa; [4]): 27.6 ± 2.23 µM | IC50 (H8; Epithelial cell, 48 h): 91.6 ± 3.28 µM | IC50 (SiHa; Homo sapiens, SiHa, 48 h): 16.41 ± 0.13 µM | IC50 (C-33A; Homo sapiens, C-33-A, 48 h): 37.2 ± 0.19 µM

COc1ccc(OC)c(C(=O)/C=C/c2ccc(N3CCCC3)cc2)c1 [Compound C1]
IC50 (HeLa; Homo sapiens, HeLa): 27.1 µM | IC50 (HeLa; [4]): 9.3 ± 0.57 µM | IC50 (H8; Epithelial cell, 48 h): 27.2 ± 2.33 µM | IC50 (SiHa; Homo sapiens, SiHa, 48 h): 9.92 ± 0.67 µM | IC50 (C-33A; Homo sapiens, C-33-A, 48 h): 13.8 ± 0.45 µM

CCOc1ccccc1-n1c(C(C)N2CCN(C(=O)COc3ccc(Cl)cc3)CC2)nc2ccccc2c1=O (stereo not shown) [Erastin, reference compound]
IC50 (HeLa; Homo sapiens, HeLa, CCK-8, Table 3, ferroptosis inducer/inhibitor comparison, read-out: IC50 HeLa): 17.2 ± 0.53 µM

COc1cccc(OC)c1C(=O)/C=C/c1ccc(N2CCCC2)cc1 [Compound A3]
IC50 (HeLa; [4]): 31.5 ± 1.46 µM | IC50 (H8; Epithelial cell, 48 h): > 100 µM | IC50 (SiHa; Homo sapiens, SiHa, 48 h): 64.44 ± 0.57 µM | IC50 (C-33A; Homo sapiens, C-33-A, 48 h): > 100 µM
